How the values were obtained:
Assay type in all cases: physicochemical
[1] = Degradation after formulation; details: RrgB321 / K2 / Al—H formulation
Protocol: (§1) The combination of RrgB321 used in this study corresponds to a fusion between RrgB sequences from (3) Taiwan-23F (2) Finland 6B-12 (1) TIGR4, and thus comprises pili of clades III, II and I. Details of RrgB321 are provided in references 235 and 236. RrgB321 was expressed with a His tag. The final RrgB321 vaccine composition contains antigen (0.4 mg/ml), compound K2 (2 mg/ml), Al—H (2 mg/ml), NaCl (9 mg/ml), histidine buffer (10 mM, pH 6.5), formulation volume: 0.05 ml (in water).
(§2) To determine whether the K2 remains adsorbed to Al—H, compositions were prepared as above.

[2] = Adsorption of compound K2 to aluminium hydroxide adjuvant (Al—H); details: Al—H 2 mg/ml
Protocol: as §2

[3] = Adsorption of RrgB321 to Al—H (SDS-PAGE)
Protocol: as §1, §2

Compound	degradation patterns after formulation [1]	compound K2 adsorbed to the Al—H ([2]; at all strengths) [%]	K2 remains adsorbed to Al—H ([2]; HPLC, RrgB321 composition)	RrgB321 adsorption to Al—H ([3]; in the absence of K2) [%]	RrgB321 adsorption to Al—H ([3]; in the presence of K2)
Cc1cc(OCCOCCOCCP(=O)(O)O)ccc1CCc1cnc2c(N)nc3cc(CCC(=O)O)ccc3c2c1 [compound K2, 3-(5-amino-2-(2-methyl-4-(2-(2-(2-phosphonoethoxy)ethoxy)ethoxy)phenethyl)benzo[f]-[1,7]naphthyridin-8-yl)propanoic acid]	Neither antigen nor K2 showed detectable degradation patterns	> 95	at least 97%		
RrgB321: fusion between RrgB sequences from Taiwan-23F, Finland 6B-12 and TIGR4 (clades III, II, I), e.g. SEQ ID NO: 250, His tag	Neither antigen nor K2 showed detectable degradation patterns			> 95	approximately 50%
